The text below walks through data of patent EP0565634B1, “ANGIOTENSIN II RECEPTOR BLOCKING COMPOSITIONS” (SMITHKLINE BEECHAM CORPORATION, priority 1990, dated 1992).

Where two headings read alike, the source gives them in different places.

Test [1] has as its target vascular angiotensin II receptors. Put plainly: Radioligand binding assay, displacement of 125I-angiotensin II. To be noted: particular fraction from rat mesenteric arteries, 80 pM 125I-angiotensin II, 1 hour at 25°C. The method, then:
(§1) Angiotensin II antagonist activity of the compounds of Formula (I) is assessed by in vitro and in vivo methods. In vitro antagonist activity is determined by the ability of the compounds to compete with ^125I-angiotensin II for binding to vascular angiotensin II receptors and by their ability to antagonize the contractile response to angiotensin II in the isolated rabbit aorta. In vivo activity is evaluated by the efficacy of the compounds to inhibit the pressor response to exogenous angiotensin II in conscious rats and to lower blood pressure in a rat model of renin dependent hypertension.
The radioligand binding assay is a modification of a method previously described in detail (Gunther et al., Circ. Res. 47:278, 1980). A particular fraction from rat mesenteric arteries is incubated in Tris buffer with 80 pM of ^125I-angiotensin II with or without angiotensin II antagonists for 1 hour at 25°C. The incubation is terminated by rapid filtration and receptor bound ^125I-angiotensin II trapped on the filter is quantitated with a gamma counter. The potency of angiotensin II antagonists is expressed as the IC50 which is the concentration of antagonist needed to displace 50% of the total specifically bound angiotensin II. The IC50 of (E)-3-[2-n-butyl-1-{(4-carboxyphenyl)methyl}-1H-imidazol-5-yl]-2-(2-thienyl)methyl-2-propenoic acid is about 1.0 nM.

For test [2], the system named is pressor response to exogenous angiotensin II. The test can be described thus: Inhibition of pressor response to angiotensin II in conscious rats. The class given is in vivo. As to conditions: Rattus norvegicus, intravenous injections of 250 mg/kg angiotensin II, read-out: IC50 (dose needed to produce 50% inhibition of the control response to angiotensin II). How it is done:
as §1
Rats are prepared with indwelling femoral arterial and venous catheters and a stomach tube (Gellai et al., Kidney Int. 15:419, 1979). Two to three days following surgery the rats are placed in a restrainer and blood pressure is continuously monitored from the arterial catheter with a pressure transducer and recorded on a polygraph. The change in mean arterial pressure in response to intravenous injections of […] angiotensin II is compared at various time points prior to and following the administration of the compounds intravenously or orally at doses of 0.1 to 300 mg/kg. The dose of compound needed to produce 50% inhibition of the control response to angiotensin II (IC50) is used to estimate the potency of the compounds.

Test [3] relates to mean arterial pressure. The test can be described thus: Antihypertensive activity in renal artery ligated, renin-dependent hypertensive conscious rats. To be noted: Rattus norvegicus, po, 192 h, orally, seven to eight days following ligation, read-out: IC30 (dose needed to reduce mean arterial pressure by 30 mmHg). The class given is in vivo. The method, then: as §1
The antihypertensive activity of the compounds is measured by their ability to reduce mean arterial pressure in conscious rats made renin-dependent hypertensive by ligation of the left renal artery (Cangiano et al;., J. Pharmacol. Exp. Ther. 208:310, 1979). Renal artery ligated rats are prepared with indwelling catheters as described above. Seven to eight days following renal artery ligation, the time at which plasma renin levels are highest, the conscious rats are placed in restrainers and mean arterial pressure is continuously recorded prior to and following the administration of the compounds intravenously or orally. The dose of compound needed to reduce mean arterial pressure by 30 mmHg (IC30) is used as an estimate of potency. […]

Take `CCCCc1ncc(/C=C(\Cc2cccs2)C(=O)O)n1Cc1ccc(C(=O)O)cc1` [(E)-3-[2-n-butyl-1-{(4-carboxyphenyl)methyl}-1H-imidazol-5-yl]-2-(2-thienyl)methyl-2-propenoic acid]: in test [1], the 50% inhibitory concentration (IC50) was about 1 nM. Moreover, the ED50 was about 0.1 mg/kg in test [2] (i.v.) and about 5.5 mg/kg in test [2] (po, orally). Moreover, the ED (30 mmHg) in test [3] is about 10 mg/kg.
